Test results as given in patent publication US9126969B2, “Pyrazolylbenzimidazole derivatives, compositions containing them and use thereof” (AVENTIS PHARMA S.A., priority 2006, dated 2015).
Structures can show the parent of a compound that is named as a salt. Where two headings read alike, the source gives them in different places.

How the values were obtained:
[1] = system: HeLa cells (tumor cell line); assay: FDA-PI viability/proliferation assay on HeLa tumor cells; assay type: cell-based; settings: for IC50: Homo sapiens; for ratio: PBL viability IC50 / HeLa viability IC50
Protocol: (§1) The compounds were tested in a viability/proliferation assay for comparing, under similar conditions, their activity on proliferating tumor cells and on quiescent normal cells.
(§2) The HeLa cells (tumor cell line) and the PBLs (quiescent cells, peripheral blood lymphocytes) originate, respectively, from the ATCC and from Cambrex.
(§3) The HeLa cells (tumor cell line) are seeded at 0.25×10^6 cells/well in 2 mL of culture medium. The products are added 24 h after seeding. After incubation for 48 h in the presence of the products, all the HeLa cells (supernatant and adherent cells) are recovered, centrifuged and taken up in PBS containing a final concentration of 0.25 μg/mL of fluorescein diacetate (FDA), 10 μg/mL of propidium iodide (PI) and 3 μL/mL of 10 μm beads. The cell suspensions are filtered immediately before analysis on the Facscalibur. The PBLs are seeded at 10^6 cells/well in 2 mL of culture medium. The products are added 1-4 h after seeding. After incubation for 48 h in the presence of the products, half the cell suspension is recovered and incubated in the presence of a final concentration of 0.25 μg/mL of fluorescein diacetate (FDA), 10 μg/mL of propidium iodide (PI) and 2 μL/mL of 10 μm beads.
(§4) The FDA which enters the cells is cleaved by esterases only in live cells, releasing the fluorescein which emits a fluorescent radiation in the green range when it is excited (generally by UV radiation). The PI enters only the dead cells, the membrane of which is permeabilized, and emits a fluorescent radiation in the red range when it is excited. The beads are used as tracers for the dead cells having already disappeared at the time of reading.
(§5) Calculation: The % of viable cells relative to the nontreated control is given by: (number of live cells/number of live cells in the control)/(number of beads/number of beads in the control)×100 for the HeLa cells, and by: (number of live cells/number of live cells in the control)×100 for the quiescent PBLs. The products according to the invention are tested at several concentrations and an IC50, corresponding to the concentration which causes 50% of the maximum inhibition, is calculated.

[2] = system: PBLs (quiescent cells, peripheral blood lymphocytes); assay: FDA-PI viability assay on quiescent PBLs; assay type: cell-based; settings: Lymphocyte, 48 h incubation, read-out: Viability PBL IC50
Protocol: as §1, §2, §3, §4, §5

[3] = HeLa cells, 48 h incubation, read-out: Viability HeLa IC50
[4] = HeLa, read-out: IC50 values on the tumor cells

Structure (SMILES) | IC50 [1, 3] [nM] | IC50 [1, 4] [nM] | ratio [1] | IC50 [2] [nM]
Cl.O=C(Nc1c[nH]nc1-c1nc2cc(F)c(N3CCOCC3)cc2[nH]1)N1CCCCC1 [Example 1, N-[3-(5-fluoro-6-morpholin-4-yl-1H-benzimidazol-2-yl)-1H-pyrazol-4-yl]piperidine-1-carboxamide Hydrochloride] | 107 |  | 70 | 7550
CCN(CC)C(=O)Nc1c[nH]nc1-c1nc2cc(F)c(N3CCOCC3)cc2[nH]1 [Example 2, 1,1-diethyl-3-[3-(5-fluoro-6-morpholin-4-yl-1H-benzimidazol-2-yl)-1H-pyrazol-4-yl]urea Trifluoroacetate] |  | < 100 |  | 
CCN(CC)C(=O)Nc1c[nH]nc1-c1nc2cc(F)c(OCCN3CCCCC3)cc2[nH]1 [Example 4, 1,1-diethyl-3-{3-[5-fluoro-6-(2-piperidin-1-ylethoxy)-1H-benzimidazol-2-yl]-1H-pyrazol-4-yl}urea Trifluoroacetate] |  | < 100 |  | 
CCN(CC)C(=O)Nc1c[nH]nc1-c1nc2cc(F)c(OCCCN3CCCCC3)cc2[nH]1 [Example 6, 1,1-diethyl-3-{3-[5-fluoro-6-(3-piperidin-1-ylpropoxy)-1H-benzimidazol-2-yl]-1H-pyrazol-4-yl}urea Hydrochloride] |  | < 100 |  | 
CC(C)N(C(=O)Nc1c[nH]nc1-c1nc2cc(F)c(N3CCCOCC3)cc2[nH]1)C(C)C [Example 8, 3-[3-(5-fluoro-6-perhydro-1,4-oxazepan-4-yl-1H-benzimidazol-2-yl)-1H-pyrazol-4-yl]-1,1-diisopropylurea] |  | < 100 |  | 
CCN(CC)C(=O)Nc1c[nH]nc1-c1nc2cc(OCCCCN3CCCCC3)c(F)cc2[nH]1 [Example 9, 1,1-diethyl-3-{3-[6-fluoro-5-(4-piperidin-1-ylbutoxy)-1H-benzimidazol-2-yl]-1H-pyrazol-4-yl}urea Trifluoroacetate] |  | < 100 |  | 
CN1CCN(c2cc3[nH]c(-c4n[nH]cc4NC(=O)N4CCCCC4)nc3cc2F)CC1.O=C(O)C(F)(F)F [Example 12, N-{3-[5-fluoro-6-(4-methylpiperazin-1-yl)-1H-benzimidazol-2-yl]-1H-pyrazol-4-yl}piperidine-1-carboxamide Trifluoroacetate] | 56 |  | 62 | 3490
CCN(CC)C(=O)Nc1c[nH]nc1-c1nc2cc(F)c(N3CCN(C)CC3)cc2[nH]1 [Example 13, 1,1-diethyl-3-{3-[5-fluoro-6-(4-methylpiperazin-1-yl)-1H-benzimidazol-2-yl]-1H-pyrazol-4-yl}urea] |  | < 100 |  | 
CCN(CC)C(=O)Nc1c[nH]nc1-c1nc2cc(F)c(N3CCCN(C)CC3)cc2[nH]1 [Example 18, 1,1-diethyl-3-{3-[5-fluoro-6-(4-methylperhydro-1,4-diazepin-1-yl)-1H-benzimidazol-2-yl]-1H-pyrazol-4-yl}urea] | 39 |  | 96 | 3760
CN1CCN(c2ccc3nc(-c4n[nH]cc4NC(=O)N4CCCCC4)[nH]c3c2)CC1 [Example 20, N-{3-[6-(4-methylpiperazin-1-yl)-1H-benzimidazol-2-yl]-1H-pyrazol-4-yl}piperidine-1-carboxamide] |  | < 100 |  | 
CN(C)CCCOc1cc2[nH]c(-c3n[nH]cc3NC(=O)N3CCNCC3)nc2cc1F [Example 31, N-{3-[6-(3-Dimethylaminopropoxy)-5-fluoro-1H-benzimidazol-2-yl]-1H-pyrazol-4-yl}piperazine-1-carboxamide] |  | 5000 to 30000 |  | 
CC(C)N(C(=O)Nc1c[nH]nc1-c1nc2cc(F)c(N3CCN(C)CC3)cc2[nH]1)C(C)C [Example 39, 3-{3-[5-Fluoro-6-(4-methylpiperazin-1-yl)-1H-benzimidazol-2-yl]-1H-pyrazol-4-yl}-1,1-diisopropylurea trifluoroacetate] |  | < 100 |  | 

The next lines start with results.

IC50 [1, 3] [nM] | IC50 [1, 4] [nM] | Structure (SMILES) | ratio [1] | IC50 [2] [nM]
 | < 100 | CCN(CC)C(=O)Nc1c[nH]nc1-c1nc2cc(F)c(OCCCN(C)C)cc2[nH]1 [Example 5, 3-{3-[6-(3-dimethylaminopropoxy)-5-fluoro-1H-benzimidazol-2-yl]-1H-pyrazol-4-yl}-1,1-diethylurea Trifluoroacetate] |  | 
 | < 100 | CCN(CC)C(=O)Nc1c[nH]nc1-c1nc2cc(F)c(N3CCCOCC3)cc2[nH]1 [Example 11, 1,1-diethyl-3[3-(5-fluoro-6-perhydro-1,4-oxazepin-4-yl-1H-benzimidazol-2-yl)-1H-pyrazol-4-yl]urea] |  | 
 | < 100 | CCN(CC)C(=O)Nc1c[nH]nc1-c1nc2cc(F)c(NCCN(C)C)cc2[nH]1 [Example 15, 3-{3-[6-(2-dimethylaminoethylamino)-5-fluoro-1H-benzimidazol-2-yl]-1H-pyrazol-4-yl}-1,1-diethylurea Trifluoroacetate] |  | 
 | < 100 | CC(C)N(C(=O)Nc1c[nH]nc1-c1nc2cc(F)c(N3CCOCC3)cc2[nH]1)C(C)C [Example 16, 3-[3-(5-fluoro-6-morpholin-4-yl-1H-benzimidazol-2-yl)-1H-pyrazol-4-yl]-1,1-diisopropylurea] |  | 
100 |  | CN1CCCN(c2cc3[nH]c(-c4n[nH]cc4NC(=O)N4CCCCC4)nc3cc2F)CC1.O=C(O)C(F)(F)F [Example 17, N-{3-[5-fluoro-6-(4-methylperhydro-1,4-diazepin-1-yl)-1H-benzimidazol-2-yl]-1H-pyrazol-4-yl}-piperidine-1-carboxamide Trifluoroacetate] | 42 | 4250
 | < 100 | CCN(CC)C(=O)Nc1c[nH]nc1-c1nc2ccc(N3CCN(C)CC3)cc2[nH]1 [Example 19, 1,1-diethyl-3-{3-[6-(4-methylpiperazin-1-yl)-1H-benzimidazol-2-yl]-1H-pyrazol-4-yl}urea] |  | 
 | < 100 | CCN(C(=O)Nc1c[nH]nc1-c1nc2cc(F)c(OCCCN(C)C)cc2[nH]1)C(C)C [Example 33, 3-{3-[6-(3-dimethylaminopropoxy)-5-fluoro-1H-benzimidazol-2-yl]-1H-pyrazol-4-yl}-1-ethyl-1-isopropylurea] |  | 
 | < 100 | CC(C)N(C(=O)Nc1c[nH]nc1-c1nc2ccc(N3CCN(C)CC3)cc2[nH]1)C(C)C [Example 34, 1,1-Diisopropyl-3-{3-[6-(4-methylpiperazin-1-yl)-1H-benzimidazol-2-yl]-1H-pyrazol-4-yl}urea] |  | 
 | < 100 | CCN(C(=O)Nc1c[nH]nc1-c1nc2ccc(N3CCN(C)CC3)cc2[nH]1)C(C)C [Example 37, 1-Ethyl-1-isopropyl-3-{3-[6-(4-methylpiperazin-1-yl)-1H-benzimidazol-2-yl]-1H-pyrazol-4-yl}urea] |  | 
85 |  | O=C(Nc1c[nH]nc1-c1nc2cc(F)c(N3CCCOCC3)cc2[nH]1)N1CCCCC1 [Example 38] | 108 | 9170
 | < 100 | CC(C)N(C(=O)Nc1c[nH]nc1-c1nc2cc(F)c(N3CCCN(C)CC3)cc2[nH]1)C(C)C [Example 40, 3-{3-[5-Fluoro-6-(4-methylperhydro-1,4-diazepin-1-yl)-1H-benzimidazol-2-yl]-1H-pyrazol-4-yl}-1,1-diisopropylurea] |  | 
